Literature values in patent publication US20070293700A1, “Process for the Preparation of Gabapentin” (Zambon Group S.P.A., priority 2004, published 2007).
Where two headings read alike, the source gives them in different places.

Legend:
[1] = pH at which the isoelectric point is reached

## NCC1(CC(=O)O)CCCCC1 [gabapentin, 1-(aminomethyl)-cyclohexaneacetic acid]
[1]
  isoelectric point (pH): 7.14
0° C.
  solubility in water: about 8.5%
Temperature of 20° C.
  solubility in water: ~11%
